Experimental data from patent US6528494B2 (priority 1996, dated 2003).
Counter-ions that a name gives are not always drawn.

Key:
Format in all cases: cell-based
adenosine 2a receptor = adenosine 2a receptor (Homo sapiens, UniProt P29274); test: Agonist activity against adenosine 2a receptor (CHO cells, cAMP/SPAP reporter); details: CHO cells transfected with human receptor; basal cAMP via SPAP; mean of all the versions tested
Protocol: (§1) (1) Agonist activity against adenosine 2a, adenosine 1 and adenosine 3 receptor subtypes.
(§2) The effect of test compounds was determined by their effects on basal levels of cAMP (A2a) or on forskolin-enhanced cAMP (A1 and A3) as reflected by changes in levels of SPAP.

adenosine 1 receptor = target: T1, adenosine 1 receptor (Homo sapiens, UniProt P30542); test: Agonist activity against adenosine 1 receptor (CHO cells, forskolin-enhanced cAMP/SPAP reporter); details: CHO cells transfected with human receptor; forskolin-enhanced cAMP via SPAP; mean of all the versions tested
T1 sequence (P30542 1-326): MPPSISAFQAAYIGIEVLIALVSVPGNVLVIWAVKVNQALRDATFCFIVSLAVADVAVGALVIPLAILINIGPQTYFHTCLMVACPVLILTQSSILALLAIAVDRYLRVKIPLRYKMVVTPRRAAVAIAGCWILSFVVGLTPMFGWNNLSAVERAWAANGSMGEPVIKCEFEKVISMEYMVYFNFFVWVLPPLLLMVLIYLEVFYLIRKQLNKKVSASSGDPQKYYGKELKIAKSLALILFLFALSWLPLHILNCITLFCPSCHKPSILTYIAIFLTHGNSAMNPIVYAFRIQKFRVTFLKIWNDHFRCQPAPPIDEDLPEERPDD
Protocol: as §1, §2

adenosine 3 receptor = target: T2, adenosine 3 receptor (Homo sapiens, UniProt P0DMS8); test: Agonist activity against adenosine 3 receptor (CHO cells, forskolin-enhanced cAMP/SPAP reporter); details: CHO cells transfected with human receptor; forskolin-enhanced cAMP via SPAP; mean of all the versions tested
T2 sequence (P0DMS8 1-318): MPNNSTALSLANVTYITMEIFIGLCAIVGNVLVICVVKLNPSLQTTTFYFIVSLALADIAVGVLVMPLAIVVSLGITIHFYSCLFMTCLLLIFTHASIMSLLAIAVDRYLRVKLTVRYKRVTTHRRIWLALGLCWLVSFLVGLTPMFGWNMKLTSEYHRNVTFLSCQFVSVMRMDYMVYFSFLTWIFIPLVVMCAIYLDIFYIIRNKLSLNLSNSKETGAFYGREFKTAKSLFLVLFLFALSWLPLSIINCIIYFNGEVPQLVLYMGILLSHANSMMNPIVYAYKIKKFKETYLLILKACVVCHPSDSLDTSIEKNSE
Protocol: as §1, §2

Sequence of adenosine 2a receptor (P29274 whole entry): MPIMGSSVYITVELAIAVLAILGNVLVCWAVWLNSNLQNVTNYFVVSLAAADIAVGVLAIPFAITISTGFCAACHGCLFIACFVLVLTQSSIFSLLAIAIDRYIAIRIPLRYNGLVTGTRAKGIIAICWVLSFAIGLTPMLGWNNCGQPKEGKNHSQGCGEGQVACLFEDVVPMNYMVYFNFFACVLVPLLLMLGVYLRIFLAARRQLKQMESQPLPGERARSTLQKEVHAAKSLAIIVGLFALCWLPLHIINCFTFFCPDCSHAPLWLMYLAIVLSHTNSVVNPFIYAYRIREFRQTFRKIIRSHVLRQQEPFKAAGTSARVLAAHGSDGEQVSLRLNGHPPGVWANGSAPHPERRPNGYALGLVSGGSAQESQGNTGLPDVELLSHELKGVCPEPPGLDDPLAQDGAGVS

| Compound | A2a EC50 as a ratio of that of NECA (adenosine 2a receptor) | A1 EC50 as a ratio of that of NECA (adenosine 1 receptor) | A3 EC50 as a ratio of that of NECA (adenosine 3 receptor) |
| --- | --- | --- | --- |
| CCn1nnc([C@H]2O[C@@H](n3cnc4c(NCC(c5ccccc5)c5ccccc5)nc(N[C@H]5CC[C@H](N)CC5)nc43)[C@H](O)[C@@H]2O)n1 (relative stereo) [Example 1, rel-(2R,3R,4S,5R)-2-[2-(trans-4-Amino-cyclohexylamino)-6-(2,2-diphenylethylamino)-purin-9-yl]-5-(2-ethyl-2H-tetrazol-5-yl)-tetrahydro-furan-3,4-diol] | 0.53 | 89.3 | >549 |
| CCn1nnc([C@H]2O[C@@H](n3cnc4c(NCC(c5ccccc5)c5ccccc5)nc(NC5CCNC5)nc43)[C@H](O)[C@@H]2O)n1.O=C(O)C(F)(F)F.O=C(O)C(F)(F)F.O=C(O)C(F)(F)F (stereo partly drawn) [Example 2, (2R,3R,4S,5R)-2-[6-(2,2-Diphenyl-ethylamino)-2-(pyrrolidin-3-ylamino)-purin-9-yl]-5-(2-ethyl-2H-tetrazol-5-yl)-tetrahydro-furan-3,4-diol tris(Trifluoroacetate)] | 0.92 | 123.6 | >216 |
| CCn1nnc([C@H]2O[C@@H](n3cnc4c(NCc5cccc(I)c5)nc(NCCc5cn(C)cn5)nc43)[C@H](O)[C@@H]2O)n1 [Example 3, (2R,3S,4R,5R)-2-(2-Ethyl-2H-tetrazol-5-yl)-5-{6-(3-iodo-benzylamino)-2-[2-(1-methyl-1H-imidazol-4-yl)-ethylamino]-purin-9-yl}-tetrahydro-furan-3,4-diol] | 0.84 | 230.8 | >116 |
| CCn1nnc([C@H]2O[C@@H](n3cnc4c(NCCc5ccccc5)nc(NCCc5cn(C)cn5)nc43)[C@H](O)[C@@H]2O)n1.Cl.Cl [Example 4, (2R,3S,4R,5R)-2-(2-Ethyl-2H-tetrazol-5-yl)-5-{2-[2-(1-methyl-1H-imidazol-4-yl)-ethylamino]-6-phenethylamino-purin-9-yl}-tetrahydro-furan-3,4-diol Dihydrochloride] | 0.149 | 205.4 | >244 |
| CCn1nnc([C@H]2O[C@@H](n3cnc4c(NCc5ccccc5)nc(NCCc5cn(C)cn5)nc43)[C@H](O)[C@@H]2O)n1 [Example 5, (2R,3R,4S,5R)-2-{6-Benzylamino-2-[2-(1-methyl-1H-imidazol-4-yl)-ethylamino]-purin-9-yl}-5-(2-ethyl-2H-tetrazol-5-yl)-tetrahydro-furan-3,4-diol] | 0.76 | 700.4 | >181 |
| CC(=O)O.CCC(CC)Nc1nc(NCCc2cn(C)cn2)nc2c1ncn2[C@@H]1O[C@H](c2nnn(CC)n2)[C@@H](O)[C@H]1O [Example 6, (2R,3R,4S,5R)-2-{6-(1-Ethyl-propylamino)-2-[2-(1-methyl-1H-imidazol-4-yl)-ethylamino]-purin-9-yl}-5-(2-ethyl-2H-tetrazol-5-yl)-tetrahydro-furan-3,4-diol Acetate] | 0.14 | 34.4 | >256 |
| CCn1nnc(C2OC(n3cnc4c(NC5CCCC5)nc(NCCc5cn(C)cn5)nc43)C(O)C2O)n1 [Example 7, (2R,3R,4S,5R)-(2-{6-Cyclopentylamino-2-[2-(1-methyl-1H-imidazol-4-yl)-ethylamino]-purin-9-yl}-5-(2-ethyl-2H-tetrazol-5-yl)-tetrahydro-furan-3,4-diol Acetate] | 0.12 | 26.2 | >161 |
| CCn1nnc(C2OC(n3cnc4c(NC(CO)Cc5ccccc5)nc(NCCc5cn(C)cn5)nc43)C(O)C2O)n1 [Example 8, (2R,3S,4R,5R)-2-(2-Ethyl-2H-tetrazol-5-yl)-5-{6-(1S-hydroxymethyl-2-phenyl-ethylamino)-2-[2-(1-methyl-1H-imidazol-4-yl)-ethylamino]-purin-9-yl}-tetrahydro-furan-3,4-diol Acetate] | 0.1 | 12.6 | >133 |
| CC(=O)O.CCn1nnc([C@H]2O[C@@H](n3cnc4c(NCCC(C)(C)C)nc(NCCc5cn(C)cn5)nc43)[C@H](O)[C@@H]2O)n1 [Example 9, (2R,3R,4S,5R)-2-{6-(3,3-Dimethyl-butylamino)-2-[2-(1-methyl-1H-imidazol-4-yl)-ethylamino]-purin-9-yl}-5-(2-ethyl-2H-tetrazol-5-yl)-tetrahydro-furan-3,4-diol Acetate] | 0.45 | 377 | >42 |
| CCn1nnc(C2OC(n3cnc4c(N)nc(NC5CCCC5O)nc43)C(O)C2O)n1 [Example 10, (2R,3R,4S,5R)-2-[6-Amino-2-(2R-hydroxy-cyclopent-1R-ylamino)-purin-9-yl]-5-(2-ethyl-2H-tetrazol-5-yl)-tetrahydro-furan-3,4-diol Hydrochloride] | 0.11 | 22.1 | 3.66 |
| CCn1nnc([C@H]2O[C@@H](n3cnc4c(N)nc(NC5CCCC5)nc43)[C@H](O)[C@@H]2O)n1.O=C(O)C(F)(F)F.O=C(O)C(F)(F)F [Example 12] | 0.57 | 31.2 | >243 |
| CCn1nnc([C@H]2O[C@@H](n3cnc4c(N)nc(Nc5ccc(F)cc5)nc43)[C@H](O)[C@@H]2O)n1.O=C(O)C(F)(F)F [Example 13, (2R,3R,4S,5R)-2-[6-Amino-2-(4-fluoro-phenylamino)-purin-9-yl]-5-(2-ethyl-2H-tetrazol-5-yl)-tetrahydro-furan-3,4-diol Trifluoroacetate] | 0.64 | 266.9 | >232 |
| CCn1nnc([C@H]2O[C@@H](n3cnc4c(N)nc(NCCc5ccc(N)cc5)nc43)[C@H](O)[C@@H]2O)n1.O=CO [Example 14, (2R,3R,4S,5R)-2-{6-Amino-2-[2-(4-amino-phenyl)-ethylamino]-purin-9-yl}-5-(2-ethyl-2H-tetrazol-5-yl)-tetrahydro-furan-3,4-diol Formate] | 0.55 | 181.1 | >209 |
| CCn1nnc([C@H]2O[C@@H](n3cnc4c(N)nc(NCCc5ccc(O)c(O)c5)nc43)[C@H](O)[C@@H]2O)n1.O=CO [Example 15, (2R,3R,4S,5R)-2-{6-Amino-2-[2-(3,4-dihydroxy-phenyl)-ethylamino]-purin-9-yl}-5-(2-ethyl-2H-tetrazol-5-yl)-tetrahydro-furan-3,4-diol Formate] | 0.55 | 139.5 | >209 |
| CCn1nnc([C@H]2O[C@@H](n3cnc4c(N)nc(NCCc5ccc(O)cc5)nc43)[C@H](O)[C@@H]2O)n1.O=CO [Example 16, (2R,3R,4S,5R)-2-{6-Amino-2-[2-(4-hydroxy-phenyl)-ethylamino]-purin-9-yl}-5-(2-ethyl-2H-tetrazol-5-yl)-tetrahydro-furan-3,4-diol Formate] | 0.3 | 516.4 | >209 |
| CCn1nnc(C2OC(n3cnc4c(N)nc(NCCc5ccc(S(N)(=O)=O)cc5)nc43)C(O)C2O)n1 (stereo not drawn) [Example 17, 4-(2-{6-Amino-9-[5R-(2-ethyl-2H-tetrazol-5-yl)-3R,4S-Dihydroxy-tetrahydro-furan-2R-yl]-9H-purin-2-ylamino}-ethyl)-benzenesulfonamide Formate] | 0.69 | 247.6 | >346 |
| CCn1nnc([C@H]2O[C@@H](n3cnc4c(N)nc(NCCc5ccc(OC)cc5)nc43)[C@H](O)[C@@H]2O)n1.O=CO [Example 18, (2R,3R,4S,5R)-2-{6-Amino-2-[2-(4-methoxy-phenyl)-ethylamino]-purin-9-yl}-5-(2-ethyl-2H-tetrazol-5-yl)-tetrahydro-furan-3,4-diol Formate] | 0.36 | 136.7 | >223 |
| CCn1nnc([C@H]2O[C@@H](n3cnc4c(N)nc(NC5CC6CCC5C6)nc43)[C@H](O)[C@@H]2O)n1.O=C(O)C(F)(F)F (stereo partly drawn) [Example 19, (2R,3R,4S,5R)-2-[6-Amino-2-(bicyclo[2.2.1]hept-2-ylamino)-purin-9-yl]-5-(2-ethyl-2H-tetrazol-5-yl)-tetrahydro-furan-3,4-diol Trifluoroacetate] | 0.21 | 85.6 | >382 |
